Patent US6864086B2, “Nitric oxide-scavenging system for culturing oocytes, embryos, or other cells” (Board of Supervisors of Louisiana State University and …, priority 1998, dated 2005)
“And” between values parts separate entries of the source, which are not always exact repeats. Equal entries are not always repeated.

Key:
bovine IVF-oocytes = assay: Example 8: Hb (1 μg/ml) in mBECM co-culture, oocytes collected in different months, pre-hatching development; type: cell-based; set-up: key to Least square mean ± SE of embryos developed to 8-cell / Least square mean ± SE of embryos developed to 16-cell / Least square mean ± SE of embryos developed to Morula / Least square mean ± SE of embryos developed to Blastocyst / Least square mean ± SE of embryos developed to 2-cell: mean of per-embryo scores: 1 = developed to stage, 0 = not developed
Description: The basic medium used for maturation of oocytes was tissue culture medium (TCM)-199 with Earle's salts, buffered with 25 mM HEPES (Gibco BRL, Grand Island, N.Y.) and supplemented with 10% (v/v) heat-inactivated fetal bovine serum (FBS; Hyclone Laboratories, Logan, Utah), 1 μg/ml estradiol-17β (NOBL Laboratories, Sioux Center, Iowa), 3 μg/ml bovine FSH (NOBL Laboratories), 6 μg/ml bovine LH (NOBL Laboratories), and 25 μg/ml gentamycin (Sigma Chemical Co., St. Louis, Mo.). The basic medium used for treatment of spermatozoa and fertilization of oocytes was a modified Tyrode's medium (J. Parrish et al., Capacitation of bovine sperm by heparin. Biol. Reprod. 38:1171-1180 (1988)), supplemented with 0.25 mM sodium pyruvate (Gibco BRL), 6 mg/ml fatty acid (FA)-free BSA (No. A-6003, Sigma), 15 μg/ml calcium heparin from porcine intestinal mucosa (183 USP/mg; H-8398, Sigma), and 25 μg/ml gentamycin. Modified bovine embryo culture medium (mBECM) containing 10 μM β-mercaptoethanol was used for culture of embryos, as described in J. Lim et al., “Roles of growth factors in the development of bovine embryos fertilized in vitro and cultured singly in a defined medium,” Reprod. Fertil. Dev., 8:1199-1205 (1996). mBECM supplemented with 10% (v/v) FBS was used for co-culturing inseminated oocytes with CGC. Osmolarity of the medium was maintained within the range of 265-290 mOsm.
All cumulus-oocyte complexes (COC) were collected in Madison, Wis. (BOMED, Inc.) and were shipped in 2 ml of maturation medium in a battery powered incubator via overnight express mail service. Oocytes matured during transit and arrived within 24 h after exposure to maturation medium, pre-equilibrated at 39° C. in 5% CO2 in air. At 22 to 24 h after exposure to the medium, the COCs were inseminated in vitro as described in J. Lim et al., “Intracytoplasmic glutathione concentration and the role of β-mercaptoethanol in preimplantation development of bovine embryos,” Theriogenology, 46:429-439 (1996). At 18 h post-insemination, COCs were cultured in groups (28-40 embryos) in a 4-well multidish (Nunc, Roskilde, Denmark) containing 0.8-ml of mBECM. Embryos were dislodged from CGC at 36 to 48 h post-insemination.
(§1) In Example 8, bovine follicular oocytes were collected from November 1996 to May 1997, and matured and fertilized in culture. (Oocytes collected during summer and early fall were not used in this study, to avoid interference from environmental heat stress on in vitro survival of embryos.) IVF embryos were collected at 18 h post-insemination and cultured in mBECM supplemented with FBS (10%, v/v), to which 0 or 1 μg/ml Hb (from bovine, mainly methemoglobin, H-2500, Sigma Co.) was added. Development of embryos to the 2-cell, 8-cell, 16-cell, morula, and blastocyst stages was monitored 48, 60, 120, 144 and 192 h post-insemination, respectively. As a supplemental experiment, some blastocysts in each treatment (20 or 28) were randomly collected, and the cell number of the blastocysts was counted by use of Hoechst stain 33342 and a fluorescent microscope (Diaphod, Nikkon, Tokyo, Japan). This experiment used 1675 embryos in 25 replicates, with IVF embryos randomly allotted among treatments.
Embryos developed to the 2-cell, 8-cell, 16-cell, morula, and blastocyst stages at the pertinent observation times were individually scored ‘1’ (developed). Embryos that had not developed to these stages at the same times were scored ‘0’ (non-developed). Sums of the scores at each stage of development were evaluated by analysis of variance using a general linear model (PROC-GLM) in the SAS statistical programming package (1991). In Example 8, the combined effects of Hb addition and month of oocyte collection were first examined in a 2×7 factorial arrangement. Overall differences in embryonic development in Hb-free and Hb-containing culture systems were further evaluated. […] Differences were regarded as statistically significant where P values were less than 0.05.

bovine blastocysts = assay: Example 8 supplemental: blastocyst cell number by Hoechst 33342 stain; type: cell-based; settings: 8 days after insemination; Hb 1 μg/ml added to culture medium; vs. 124.2±8.4
Description: as §1

hemoglobin [Hb]
Least square mean ± SE of embryos developed to 2-cell (bovine IVF-oocytes; April): 0.70 ± 0.03
Least square mean ± SE of embryos developed to 8-cell (bovine IVF-oocytes; April): 0.48 ± 0.03
Least square mean ± SE of embryos developed to 16-cell (bovine IVF-oocytes; April): 0.39 ± 0.03
Least square mean ± SE of embryos developed to Blastocyst (bovine IVF-oocytes; April): 0.25 ± 0.03
Least square mean ± SE of embryos developed to Morula (bovine IVF-oocytes; April): 0.32 ± 0.03
Least square mean ± SE of embryos developed to 2-cell (bovine IVF-oocytes; December): 0.79 ± 0.05
Least square mean ± SE of embryos developed to 8-cell (bovine IVF-oocytes; December): 0.59 ± 0.05
Least square mean ± SE of embryos developed to 16-cell (bovine IVF-oocytes; December): 0.53 ± 0.05
Least square mean ± SE of embryos developed to Blastocyst (bovine IVF-oocytes; December): 0.36 ± 0.05
Least square mean ± SE of embryos developed to Morula (bovine IVF-oocytes; December): 0.41 ± 0.05
Least square mean ± SE of embryos developed to 2-cell (bovine IVF-oocytes; February): 0.77 ± 0.04
Least square mean ± SE of embryos developed to 8-cell (bovine IVF-oocytes; February): 0.53 ± 0.04
Least square mean ± SE of embryos developed to 16-cell (bovine IVF-oocytes; February): 0.44 ± 0.04
Least square mean ± SE of embryos developed to Blastocyst (bovine IVF-oocytes; February): 0.35 ± 0.04
Least square mean ± SE of embryos developed to Morula (bovine IVF-oocytes; February): 0.40 ± 0.04
Least square mean ± SE of embryos developed to 2-cell (bovine IVF-oocytes; January): 0.70 ± 0.04
Least square mean ± SE of embryos developed to 8-cell (bovine IVF-oocytes; January): 0.45 ± 0.04
Least square mean ± SE of embryos developed to 16-cell (bovine IVF-oocytes; January): 0.42 ± 0.04
Least square mean ± SE of embryos developed to Blastocyst (bovine IVF-oocytes; January): 0.28 ± 0.04
Least square mean ± SE of embryos developed to Morula (bovine IVF-oocytes; January): 0.32 ± 0.04
Least square mean ± SE of embryos developed to 2-cell (bovine IVF-oocytes; March): 0.58 ± 0.05
Least square mean ± SE of embryos developed to 8-cell (bovine IVF-oocytes; March): 0.40 ± 0.06
Least square mean ± SE of embryos developed to 16-cell (bovine IVF-oocytes; March): 0.31 ± 0.06
Least square mean ± SE of embryos developed to Blastocyst (bovine IVF-oocytes; March): 0.20 ± 0.05
Least square mean ± SE of embryos developed to Morula (bovine IVF-oocytes; March): 0.23 ± 0.06
Least square mean ± SE of embryos developed to 2-cell (bovine IVF-oocytes; May): 0.70 ± 0.05
Least square mean ± SE of embryos developed to 8-cell (bovine IVF-oocytes; May): 0.60 ± 0.05
Least square mean ± SE of embryos developed to 16-cell (bovine IVF-oocytes; May): 0.49 ± 0.05
Least square mean ± SE of embryos developed to Blastocyst (bovine IVF-oocytes; May): 0.40 ± 0.05
Least square mean ± SE of embryos developed to Morula (bovine IVF-oocytes; May): 0.44 ± 0.05
Least square mean ± SE of embryos developed to 2-cell (bovine IVF-oocytes; November): 0.89 ± 0.07
Least square mean ± SE of embryos developed to 8-cell (bovine IVF-oocytes; November): 0.71 ± 0.08
Least square mean ± SE of embryos developed to 16-cell (bovine IVF-oocytes; November): 0.60 ± 0.08
Least square mean ± SE of embryos developed to Blastocyst (bovine IVF-oocytes; November): 0.34 ± 0.07
Least square mean ± SE of embryos developed to Morula (bovine IVF-oocytes; November): 0.57 ± 0.08
formation of blastocysts (least square mean), range over months (bovine IVF-oocytes; November-May, control 0.17-0.32): 0.20-0.4
formation of morulae (least square mean), range over months (bovine IVF-oocytes; November-May, control 0.2-0.37): 0.23-0.57
Number of embryos developed to 2-cell (bovine IVF-oocytes; all months overall, 831 embryos cultured, 48 h): 601
Number of embryos developed to 8-cell (bovine IVF-oocytes; all months overall, 831 embryos cultured, 60 h): 427
Number of embryos developed to 16-cell (bovine IVF-oocytes; all months overall, 831 embryos cultured, 120 h): 358
Number of embryos developed to Morula (bovine IVF-oocytes; all months overall, 831 embryos cultured, 144 h): 300
Number of embryos developed to Blastocyst (bovine IVF-oocytes; all months overall, 831 embryos cultured, 192 h): 251
Least square mean ± SE of embryos developed to 2-cell (bovine IVF-oocytes; all months overall, 48 h): 0.73 ± 0.02
Least square mean ± SE of embryos developed to 8-cell (bovine IVF-oocytes; all months overall, 60 h): 0.54 and 0.54 ± 0.02
Least square mean ± SE of embryos developed to 16-cell (bovine IVF-oocytes; all months overall, 120 h): 0.45 and 0.45 ± 0.02
Least square mean ± SE of embryos developed to Morula (bovine IVF-oocytes; all months overall, 144 h): 0.39 and 0.39 ± 0.02
Least square mean ± SE of embryos developed to Blastocyst (bovine IVF-oocytes; all months overall, 192 h): 0.31 and 0.31±0.02
effect on development to the 2-cell stage (bovine IVF-oocytes; all months overall, P>0.73): no significant effect
number of blastocyst cells (bovine blastocysts): 128.6±7.1
